Measured values from US12364671B1, “Methods of administering vitamin A and lactic acid to gilts” (CHINA AGRICULTURAL UNIVERSITY, priority 2024, dated 2025).

How the values were obtained:
sheep = details: 50000 IU per day, continuously fed by 50 days; cited from earlier work
[1] = system: cows with reproductive disorders; details: vitamin A 50000 IU per day, alone or with carotene 200 mg per day; cited from earlier work
gilts = experiment: Extra vitamin A fed to gilts prior to estrus initiation; assay type: in vivo; details: extra vitamin A in addition to the diet, no lactic acid
Excerpt: Therefore, the inventors speculated that the lactic acid may be beneficial to the puberty onset and estrus of the gilts.

**Q.** For vitamin A, which estrus rate (sheep) is on record?
**A.** no significantly affected

**Q.** And the lambing rate (sheep)?
**A.** significantly increased

**Q.** What about the conception rate [1] of the same substance?
**A.** significantly increased

**Q.** And the estrogen level [1]?
**A.** significantly increased

**Q.** What about the estrus ate [1] of the same substance?
**A.** not significantly affected

**Q.** What about the follicle size [1] of the same substance?
**A.** not significantly affected

**Q.** And the “delayed estrus initiation or estrus disorder” value (gilts)?
**A.** improve the delayed estrus initiation or estrus disorder in gilts to some extent
